This is an account of results in patent publication US8871767B2, “2-arylimidazo[1,2-B]pyridazine, 2-phenylimidazo[1,2-A]pyridine, and 2-phenylimidazo[1,2-A]pyrazine derivatives” (Hengrui (USA) Ltd., priority 2010, dated 2014).

The subject of the first experiment is Hedgehog pathway activation (GLi-luciferase reporter) in Shh Light II reporter cells. The experiment in a line: Hedgehog pathway activation on Shh Light II reporter cells measured by luciferase activity. It counts as cell-based. The following applies: Mus musculus, Shh Light II, hShh activation, read-out: Shh (IC50, inhibition of Hedgehog pathway activation). On the procedure:
Hedgehog conditioned media was obtained by transfecting 293H cells with the full length gene encoding human Sonic Hedgehog (hShh) inserted into the pCMV6 expression vector, which contains a neomycin selectable marker and expresses the protein of interest with a C-terminal FLAG affinity tag. After selection in G418 containing media, conditioned media from Hedgehog expressing clones were tested for the ability to activate the hedgehog-responsive GLi-luciferase reporter in the Shh Light II cell line obtained by license from John Hopkins University (Taipale J, et al. Effects of oncogenic mutations in Smoothened and Patched can be reversed by cyclopamine. Nature 406: 1005-1009, 2000).
A test compound library was screened against hShh and 500 nM SAG (a direct agonist of the Smoothened receptor) activated 10T1/2/Smo#3 cells and Shh Light II reporter cells for the ability to block Hedgehog pathway activation. Concurrently, cell viability was measured by utilizing Celltiter-Blue® (Promega, Madison Wis.) viability assay. Active compounds were defined as those that inhibited Hedgehog signaling by greater than 50% with no concurrent loss in cell viability.
Their inhibitory activity against Hedgehog pathway activation on 10T1/2/Smo#3 cells as measured by ALP activity and Shh Light II reporter cells as measured by luciferase activity is shown in Table 1 below. In Table 1, +++ stands for an IC50 value that is less than 0.3 μM, ++ between 0.3 and 3 μM, + between 3 and 30 μM.
Additional data for compounds of the invention is shown below in Table 2. Their inhibitory activities against Hedgehog pathway activation are shown as IC50 values in μM on 10T1/2/Smo#3 cells as measured by ALP activity, or on Shh Light II reporter cells as measured by luciferase activity (hShh activation).
In the case of `CC(C)(C)OC(=O)NC1CCN(c2ccc3nc(-c4ccc(C(F)(F)F)c(NC(=O)C(C)(C)C)c4)cn3n2)CC1` [Example 331, tert-butyl 1-(2-(3-pivalamido-4-(trifluoromethyl)phenyl)imidazo[1,2-b]pyridazin-6-yl)piperidin-4-ylcarbamate], the IC50 – broadly, the midpoint of a concentration-inhibition curve – came out at 478 nM.
On to `CC(C)(C)C(=O)Nc1cc(-c2cn3nc(N4CCC(N)CC4)ccc3n2)ccc1C(F)(F)F` [Example 332, N-(5-(6-(4-aminopiperidin-1-yl)imidazo[1,2-b]pyridazin-2-yl)-2-(trifluoromethyl)phenyl)pivalamide], for which the IC50 turned out to be 698 nM.
In the case of `CC(C)(C)C(=O)Nc1cc(-c2cn3nc(NC4CCCCC4O)ccc3n2)ccc1C(F)(F)F` (centres unmarked) [Example 333, N-(5-(6-(2-hydroxycyclohexylamino)imidazo[1,2-b]pyridazin-2-yl)-2-(trifluoromethyl)phenyl)pivalamide], the concentration for half-maximal inhibition (IC50) worked out at 893 nM.
On the same count and under the same terms, the result for `CC(C)(C)C(=O)Nc1cc(-c2cn3nc(-c4cccnc4N4CCOCC4)ccc3n2)ccc1C(F)(F)F` [Example 335, N-(5-(6-(2-morpholinopyridin-3-yl)imidazo[1,2-b]pyridazin-2-yl)-2-(trifluoromethyl)phenyl)pivalamide] reads 1610 nM; that for `CC(C)(C)C(=O)Nc1cc(-c2cn3nc(N4CCCC(O)C4)ccc3n2)ccc1C(F)(F)F` (centres unmarked) [Example 336, N-(5-(6-(3-hydroxypiperidin-1-yl)imidazo[1,2-b]pyridazin-2-yl)-2-(trifluoromethyl)phenyl)pivalamide], 230 nM.
In the case of `CCc1ccc(-c2cn3nc(-c4ccc(C(F)(F)F)nc4)ccc3n2)cc1NC(=O)C(C)(C)C` [Example 338, N-(2-ethyl-5-(6-(6-(trifluoromethyl)pyridin-3-yl)imidazo[1,2-b]pyridazin-2-yl)phenyl)pivalamide], the IC50 amounted to 398 nM.
Still for that read-out and setting: the result for `Cc1ccc(-c2nc3ccc(-c4ccc(C(F)(F)F)nc4)nn3c2C)cc1NC(=O)C(C)(C)C` [Example 339, N-(2-methyl-5-(3-methyl-6-(6-(trifluoromethyl)pyridin-3-yl)imidazo[1,2-b]pyridazin-2-yl)phenyl)pivalamide] reads 277 nM; that for `Cc1ccnc(F)c1-c1ccc2nc(-c3ccc(C(F)(F)F)c(NC(=O)C(C)(C)C)c3)cn2n1` [Example 342, N-(5-(6-(2-fluoro-4-methylpyridin-3-yl)imidazo[1,2-b]pyridazin-2-yl)-2-(trifluoromethyl)phenyl)pivalamide], 409 nM; that for `CC(C)(C)C(=O)Nc1cc(-c2cn3nc(-c4cncc(N)c4)ccc3n2)ccc1C(F)(F)F` [Example 343, N-(5-(6-(5-aminopyridin-3-yl)imidazo[1,2-b]pyridazin-2-yl)-2-(trifluoromethyl)phenyl)pivalamide], 340 nM.
Turning to `CC(C)(C)C(=O)Nc1cc(-c2cn3nc(-c4cccnc4N)ccc3n2)ccc1C(F)(F)F` [Example 344, N-(5-(6-(2-aminopyridin-3-yl)imidazo[1,2-b]pyridazin-2-yl)-2-(trifluoromethyl)phenyl)pivalamide], the half-inhibitory concentration (IC50) was 8740 nM.
Same read-out and setting: for `CC(C)(C)C(=O)Nc1cc(-c2cn3nc(-c4ccccc4N)ccc3n2)ccc1C(F)(F)F` [Example 345, N-(5-(6-(2-aminophenyl)imidazo[1,2-b]pyridazin-2-yl)-2-(trifluoromethyl)phenyl)pivalamide] the value was 5490 nM; for `CC(C)(C)C(=O)Nc1cc(-c2cn3nc(N4CCCC4CO)ccc3n2)ccc1C(F)(F)F` (centres unmarked) [Example 348, N-(5-(6-(2-(hydroxymethyl)pyrrolidin-1-yl)imidazo[1,2-b]pyridazin-2-yl)-2-(trifluoromethyl)phenyl)pivalamide], 339 nM; for `Cc1ccc(-c2cn3nc(-c4cccc(O)c4C(F)(F)F)ccc3n2)cc1NC(=O)C(C)(C)C` [Example 398, N-(5-(6-(3-hydroxy-2-(trifluoromethyl)phenyl)imidazo[1,2-b]pyridazin-2-yl)-2-methylphenyl)pivalamide], 681 nM.
On the same count and under the same terms, the result for `Cc1ccc(-c2cn3nc(-c4ccc(N)nc4)ccc3n2)cc1NC(=O)C(C)(C)C` [Example 402, N-(5-(6-(6-aminopyridin-3-yl)imidazo[1,2-b]pyridazin-2-yl)-2-methylphenyl)pivalamide] reads 1560 nM; that for `COc1cncc(-c2ccc3nc(-c4ccc(C)c(NC(=O)C(C)(C)C)c4)cn3n2)c1` [Example 403, N-(5-(6-(5-methoxypyridin-3-yl)imidazo[1,2-b]pyridazin-2-yl)-2-methylphenyl)pivalamide], 474 nM; that for `Cc1ccc(-c2cn3nc(-c4ccc(O)nc4)ccc3n2)cc1NC(=O)C(C)(C)C` [Example 404, N-(5-(6-(6-hydroxypyridin-3-yl)imidazo[1,2-b]pyridazin-2-yl)-2-methylphenyl)pivalamide], 873 nM.
On the same count and under the same terms, for `Cc1ccc(-c2cn3nc(-c4cncc(O)c4)ccc3n2)cc1NC(=O)C(C)(C)C` [Example 405, N-(5-(6-(5-hydroxypyridin-3-yl)imidazo[1,2-b]pyridazin-2-yl)-2-methylphenyl)pivalamide] the value was 1980 nM.
In the case of `Cc1ccc(-c2cn3nc(-c4cccnc4O)ccc3n2)cc1NC(=O)C(C)(C)C` [Example 406, N-(5-(6-(2-hydroxypyridin-3-yl)imidazo[1,2-b]pyridazin-2-yl)-2-methylphenyl)pivalamide], the 50% inhibitory concentration (IC50) was determined as 2060 nM.
Consider `Cc1ccc(-c2cn3nc(-c4cncc(F)c4)ccc3n2)cc1NC(=O)C(C)(C)C` [Example 407, N-(5-(6-(5-fluoropyridin-3-yl)imidazo[1,2-b]pyridazin-2-yl)-2-methylphenyl)pivalamide], for which the IC50 worked out at 353 nM.
On the same count and under the same terms, the result for `Cc1ccc(-c2cn3nc(-c4ccc(Cl)nc4)ccc3n2)cc1NC(=O)C(C)(C)C` [Example 408, N-(5-(6-(6-chloropyridin-3-yl)imidazo[1,2-b]pyridazin-2-yl)-2-methylphenyl)pivalamide] reads 340 nM.
As for `Cc1ccc(-c2cn3nc(-c4ccc(O)cc4C(F)(F)F)ccc3n2)cc1NC(=O)C(C)(C)C` [Example 409, N-(5-(6-(4-hydroxy-2-(trifluoromethyl)phenyl)imidazo[1,2-b]pyridazin-2-yl)-2-methylphenyl)pivalamide], the half-inhibitory concentration (IC50) was 236 nM.
In the case of `CCOC(=O)CCCCCNC1CCN(c2ccc3nc(-c4ccc(C)c(NC(=O)C(C)(C)C)c4)cn3n2)C1` (centres unmarked) [Example 414, ethyl 6-(1-(2-(4-methyl-3-pivalamidophenyl)imidazo[1,2-b]pyridazin-6-yl)pyrrolidin-3-ylamino)hexanoate], the IC50 worked out at 947 nM.
On the same count and under the same terms, for `CCOC(=O)CCCCCCNC1CCN(c2ccc3nc(-c4ccc(C)c(NC(=O)C(C)(C)C)c4)cn3n2)C1` (centres unmarked) [Example 415, ethyl 7-(1-(2-(4-methyl-3-pivalamidophenyl)imidazo[1,2-b]pyridazin-6-yl)pyrrolidin-3-ylamino)heptanoate] the value was 1760 nM; for `Cc1ccc(-c2cn3nc(-c4ccc(OCCCCCC(=O)NO)cc4C(F)(F)F)ccc3n2)cc1NC(=O)C(C)(C)C` [Example 416, N-hydroxy-6-(4-(2-(4-methyl-3-pivalamidophenyl)imidazo[1,2-b]pyridazin-6-yl)-3-(trifluoromethyl)phenoxy)hexanamide], 253 nM; for `Cc1ccc(-c2cn3nc(N4CCC(NCCCCCC(=O)NO)C4)ccc3n2)cc1NC(=O)C(C)(C)C` (centres unmarked) [Example 418, N-hydroxy-6-(1-(2-(4-methyl-3-pivalamidophenyl)imidazo[1,2-b]pyridazin-6-yl)pyrrolidin-3-ylamino)hexanamide], 1390 nM.
On the same count and under the same terms, the result for `Cc1ccc(-c2cn3nc(N4CCC(NCCCCCCC(=O)NO)C4)ccc3n2)cc1NC(=O)C(C)(C)C` (centres unmarked) [Example 419, N-hydroxy-7-(1-(2-(4-methyl-3-pivalamidophenyl)imidazo[1,2-b]pyridazin-6-yl)pyrrolidin-3-ylamino)heptanamide] reads 968 nM; that for `COC(=O)CCCCCCC(=O)Nc1cc(-c2cn3nc(-c4cccnc4C(F)(F)F)ccc3n2)ccc1C` [Example 420, methyl 8-(2-methyl-5-(6-(2-(trifluoromethyl)pyridin-3-yl)imidazo[1,2-b]pyridazin-2-yl)phenylamino)-8-oxooctanoate], 1370 nM; that for `COC(=O)CCCCC(=O)Nc1cc(-c2cn3nc(-c4cccnc4C(F)(F)F)ccc3n2)ccc1C` [Example 421, methyl 6-(2-methyl-5-(6-(2-(trifluoromethyl)pyridin-3-yl)imidazo[1,2-b]pyridazin-2-yl)phenylamino)-6-oxohexanoate], 3310 nM.

The same experiment, now with this note: hShh activation, read-out: Shh (IC50, inhibition of Hedgehog pathway activation).
In the case of `Cc1ccc(-c2cn3nc(-c4cccnc4C(F)(F)F)ccc3n2)cc1NC(=O)CCCCCCC(=O)O` [Example 430, 8-(2-methyl-5-(6-(2-(trifluoromethyl)pyridin-3-yl)imidazo[1,2-b]pyridazin-2-yl)phenylamino)-8-oxooctanoic acid], the IC50 is 5430 nM.
